Assay results: patent US20250059141A1, “TLR MODULATOR AND USE THEREOF” (DUALITY BIOLOGICS (SUZHOU) CO., LTD., priority 2021, published 2025)
pEC50: −log10 of the molar value. Like-named read-outs stand apart in the source and are kept apart here.

What was measured:
[1] = target: T1, hTLR7 (human Toll-like receptor 7) (Homo sapiens, UniProt Q9NYK1); experiment: HEK-Blue hTLR7 reporter assay (QUANTI-Blue, OD650); format: cell-based; conditions: HEK-Blue hTLR7 cells, 24 h, read-out: Reporter assay TLR7 EC50
T1 construct: host or cells: HEK-Blue hTLR7 (HEK293-derived reporter cells)
T1 sequence (Q9NYK1 27-1049): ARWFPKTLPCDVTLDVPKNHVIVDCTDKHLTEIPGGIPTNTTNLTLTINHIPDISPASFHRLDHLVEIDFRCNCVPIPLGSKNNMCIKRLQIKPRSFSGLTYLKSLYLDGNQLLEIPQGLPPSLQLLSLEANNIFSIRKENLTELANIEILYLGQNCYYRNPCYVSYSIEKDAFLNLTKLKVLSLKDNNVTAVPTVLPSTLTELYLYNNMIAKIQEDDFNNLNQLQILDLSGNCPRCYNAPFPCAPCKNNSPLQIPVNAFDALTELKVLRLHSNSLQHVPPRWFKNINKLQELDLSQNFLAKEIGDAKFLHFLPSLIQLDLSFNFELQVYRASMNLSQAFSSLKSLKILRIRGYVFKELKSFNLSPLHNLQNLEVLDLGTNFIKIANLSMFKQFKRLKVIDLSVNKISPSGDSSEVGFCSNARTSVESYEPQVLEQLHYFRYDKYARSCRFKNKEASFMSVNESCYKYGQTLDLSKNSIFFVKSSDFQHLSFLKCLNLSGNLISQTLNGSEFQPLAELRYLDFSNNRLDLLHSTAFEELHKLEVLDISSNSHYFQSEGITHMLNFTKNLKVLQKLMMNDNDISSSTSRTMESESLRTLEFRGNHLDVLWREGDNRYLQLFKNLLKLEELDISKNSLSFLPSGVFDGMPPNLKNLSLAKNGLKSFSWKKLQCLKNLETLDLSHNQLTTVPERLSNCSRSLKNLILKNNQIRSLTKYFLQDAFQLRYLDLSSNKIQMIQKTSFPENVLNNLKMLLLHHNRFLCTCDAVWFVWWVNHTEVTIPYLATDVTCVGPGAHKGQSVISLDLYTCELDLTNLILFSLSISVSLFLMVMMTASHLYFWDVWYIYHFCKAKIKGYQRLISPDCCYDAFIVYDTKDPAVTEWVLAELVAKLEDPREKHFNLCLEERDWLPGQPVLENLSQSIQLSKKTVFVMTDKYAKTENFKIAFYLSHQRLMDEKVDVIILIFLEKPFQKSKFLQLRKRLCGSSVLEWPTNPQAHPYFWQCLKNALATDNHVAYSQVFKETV
Procedure: (§1) In this example, the agonistic activity of the compounds of the present application on hTLR7 (human Toll-like receptor 7) and hTLR8 (human Toll-like receptor 8) was assessed; the induction activity of the compounds on human PBMCs for TNF-α and IFN-α production was assessed in human PBMCs (human peripheral blood mononuclear cells).
(§2) All compounds were formulated in DMSO into 30 mM stock solutions and preserved at 4° C. The reference compound ([…], Cat. No. tlrl-r848-5) was purchased from InvivoGen and formulated into a 5 mg/mL stock solution in DMSO and preserved in a freezer at −20° C. HEK-Blue hTLR7 and HEK-Blue hTLR8 cell lines were purchased from InvivoGen, and human PBMCs were purchased from Shanghai Saily Biotechnology Co., Ltd. (Cat. No. XFB—HP100B).
(§3) The major instruments used in this study were multifunctional microplate reader Flexstation III (Molecular Device), Envision (Perkin Elmer), M2e (Molecular Device), and Echo555 (Labcyte). 2.1 Agonistic activity of compounds on hTLR7 (human Toll-like receptor 7) and hTLR8 (human Toll-like receptor 8)
(§4) Compound dilution: The compounds of the present application are diluted in DMSO, for example, to about 15 mM. The reference compound was added to the plates in sequence after dilution. The compounds were serially 3-fold diluted to 10 concentrations and added to 96-well plates in duplicate.
(§5) For the negative control wells, DMSO was added at 0.2 μL/well, and the reference compound was added to the positive control wells. The final concentration of DMSO was 0.2%.
(§6) Cell plating: When an 80% confluence of HEK Blue hTLR7&8 cells in the culture flask was observed under a microscope, the culture medium was discarded, 10 mL of detection medium was added, and the cells were separated by pipetting. The cells were counted on a cytometer and diluted to 500,000 cells/mL. The cells were plated at 100 μL/50,000 cells/well in the 96-well plates containing the compounds. The compounds and cells were co-incubated at 37° C. in a 5% CO2 incubator for 24 hours.
(§7) Compound activity detection: 20 μL of cell supernatant was taken from each well and added to a plate containing QUANTI-Blue™ reagent at 180 μL/well. The plate was incubated at 37° C. for 1 hour, and the absorbance at 650 nm (OD650) was measured on the multifunctional microplate reader Flexstation III.
(§8) Compound activity data analysis: The OD650 values were analyzed by GraphPad Prism software and fitted to give dose-response curves of the compounds. The EC50 values of compounds were calculated.

[2] = target: T2, hTLR8 (human Toll-like receptor 8) (Homo sapiens, UniProt Q9NR97); experiment: HEK-Blue hTLR8 reporter assay (QUANTI-Blue, OD650); format: cell-based; conditions: HEK-Blue hTLR8 cells, 24 h, read-out: Reporter assay TLR8 EC50
T2 construct: host or cells: HEK-Blue hTLR8 (HEK293-derived reporter cells)
T2 sequence (Q9NR97 27-1041): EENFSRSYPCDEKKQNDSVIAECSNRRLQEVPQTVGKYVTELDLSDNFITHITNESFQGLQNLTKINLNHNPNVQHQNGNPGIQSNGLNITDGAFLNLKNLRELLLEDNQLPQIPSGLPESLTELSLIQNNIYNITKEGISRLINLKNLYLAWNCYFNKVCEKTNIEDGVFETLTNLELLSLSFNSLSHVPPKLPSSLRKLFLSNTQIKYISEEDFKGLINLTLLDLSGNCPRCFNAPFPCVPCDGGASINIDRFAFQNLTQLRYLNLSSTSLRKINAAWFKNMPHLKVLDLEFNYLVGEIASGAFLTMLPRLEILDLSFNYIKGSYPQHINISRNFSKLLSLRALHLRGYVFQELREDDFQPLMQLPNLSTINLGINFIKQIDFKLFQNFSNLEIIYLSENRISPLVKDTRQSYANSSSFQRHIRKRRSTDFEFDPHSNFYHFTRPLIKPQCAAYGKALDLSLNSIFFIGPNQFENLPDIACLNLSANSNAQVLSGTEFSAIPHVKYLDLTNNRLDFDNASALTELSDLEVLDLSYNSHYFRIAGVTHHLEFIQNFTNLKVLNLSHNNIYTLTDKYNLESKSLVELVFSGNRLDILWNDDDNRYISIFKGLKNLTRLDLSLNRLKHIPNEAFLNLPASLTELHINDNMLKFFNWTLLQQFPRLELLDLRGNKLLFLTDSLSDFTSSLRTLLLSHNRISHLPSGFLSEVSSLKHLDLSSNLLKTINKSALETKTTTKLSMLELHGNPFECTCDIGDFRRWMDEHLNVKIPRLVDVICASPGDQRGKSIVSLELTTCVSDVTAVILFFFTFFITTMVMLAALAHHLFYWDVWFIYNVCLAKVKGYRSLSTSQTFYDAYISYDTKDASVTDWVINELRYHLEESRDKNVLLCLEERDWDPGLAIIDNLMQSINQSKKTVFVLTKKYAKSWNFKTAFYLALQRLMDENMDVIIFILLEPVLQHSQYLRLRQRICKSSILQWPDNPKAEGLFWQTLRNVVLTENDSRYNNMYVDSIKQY
Procedure: as §1, §2, §3, §4, §5, §6, §7, §8

Row | SMILES | pEC50 [1] | pEC50 [2] | pEC50 ([1]; class symbols) | pEC50 ([2]; class symbols)
1 | CCCN(OCc1ccc(N)cc1)C(=O)C1=Cc2ccc(C(=O)N3CCOCC3)cc2N=C(N)C1 [Compound 39] | 5.45 | 8.55 |  | 
2 | CCCN(OCc1ccc(N)cc1)C(=O)C1=Cc2ccc(C(=O)N3CC[C@@H](O)C3)cc2N=C(N)C1 [Compound 46A] |  |  | < 6.00 | 7.00 to 8.00
3 | CCCN(OCc1ccc(N)cc1)C(=O)C1=Cc2ccc(C(=O)N3CC[C@H](O)C3)cc2N=C(N)C1 [Compound 46B] |  |  | < 6.00 | 7.00 to 8.00
